# From patent US20260225997A1, “IONIZABLE AMINE LIPIDS” (Intellia Therapeutics, Inc., priority 2018, published 2026)
# Like-named read-outs stand apart in the source and are kept apart here.
# What was measured:
# [1] = pKa measurement of unformulated amine lipid (fluorescence, method of Jayaraman et al.); format: physicochemical; conditions: 100 μM in 0.1 M phosphate buffer pH 4.5-9.0
# Protocol: The pKa of each amine lipid was determined according to the method in Jayaraman, et al. (Angewandte Chemie, 2012) with the following adaptations. […] Lipid was diluted to 100 μM in 0.1 M phosphate buffer (Boston Bioproducts) where the pH ranged from 4.5-9.0. Fluorescence intensity was measured using excitation and emission wavelengths of 321 nm and 448 nm.
# [2] = RNA encapsulation efficiency of LNP (Ribogreen fluorescence assay); format: physicochemical
# How it was run: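 LNP samples diluted in 1× TE buffer with 0.2% Triton X-100 (total RNA) or without it (free RNA), stained with RiboGreen for ~10 min at room temperature in the dark, read at ex 488/em 525 nm against RNA standard curves. Encapsulation efficiency = (Total RNA − Free RNA)/Total RNA.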
# [3] = tested on: TTR; assay: TTR editing in mouse liver by NGS after i.v. LNP delivery of Cas9 mRNA and sgRNA; format: in vivo; conditions: CD-1 female mice, 7 days post-dose; for Editing Mean % Indel: G282 1:1
# How it was run: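 Cas9 mRNA and chemically modified sgRNA were co-formulated in LNPs made of an ionizable amine lipid, DSPC, cholesterol and PEG-2k-DMG at a 6.0 N:P ratio. CD-1 female mice aged 6-10 weeks received tail-vein injections of 0.2 mL. Liver genomic DNA was then amplified around the target site and sequenced on an Illumina MiSeq, with editing calculated as indel-containing reads over total reads.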
# [4] = tested on: TTR; assay: Transthyretin (TTR) ELISA analysis of mouse serum after LNP dosing; format: in vivo; conditions: 7 days post-dose
# How it was run: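 Female CD-1 mice aged 6-10 weeks were grouped by body weight and given LNPs by lateral tail vein injection (0.2 mL per animal, about 10 mL per kilogram). Mice were bled by cardiac puncture under isoflurane into serum separator tubes. Serum was diluted 10,000-fold for the 0.1 mpk dose, and total TTR was quantified with a Mouse Prealbumin (Transthyretin) ELISA Kit following the kit directions.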
pKa [1],"Encapsulation (%) ([2]; Table 12, Example 56: LNP, G282 (TTR), ratio 6.0)","Encapsulation (%) ([2]; Table 16, Example 59: LNP, G282 (TTR) 1:1 w/w, N:P 6.0)","Encapsulation (%) ([2]; Table 20, Example 61: LNP, G282 (TTR) 1:1 w/w, N:P 6.0)","Encapsulation (%) ([2]; Table 24, Example 63: LNP, G282 (TTR) 1:1 w/w, NP 6.0)",SMILES,"Editing % ([3]; Example 56: 0.1 mpk i.v., G282) [%]",Editing Mean % Indel ([3]; Example 59: 0.1 mpk i.v.) [%],Editing Mean % Indel ([3]; Example 61: 0.1 mpk i.v.) [%],"Serum TTR ([4]; Example 56: 0.1 mpk i.v., G282) [µg/mL]","Serum TTR (% TSS) ([4]; Example 56: 0.1 mpk i.v., G282)","Serum TTR ([4]; Example 59: 0.1 mpk i.v., G282 1:1) [µg/mL]","Serum TTR ([4]; Example 61: 0.1 mpk i.v., G282 1:1) [µg/mL]","response vs control in vivo at 0.1 mg/kg ([4]; Mus musculus, iv, 168 h, Example 59: 0.1 mpk i.v., G282 1:1, read-out: Serum TTR % TSS) [%]","response vs control in vivo at 0.1 mg/kg ([4]; Mus musculus, iv, 168 h, Example 61: 0.1 mpk i.v., G282 1:1, read-out: Serum TTR % TSS) [%]",Editing Mean % Indel ([3]; Example 63: 0.03 mpk i.v.) [%],Editing Mean % Indel ([3]; Example 63: 0.1 mpk i.v.) [%],"Serum TTR ([4]; Example 63: 0.03 mpk i.v., G282 1:1) [µg/mL]","Serum TTR ([4]; Example 63: 0.1 mpk i.v., G282 1:1) [µg/mL]","response vs control in vivo at 0.03 mg/kg ([4]; Mus musculus, iv, 168 h, Example 63: 0.03 mpk i.v., G282 1:1, read-out: Serum TTR % TSS) [%]","response vs control in vivo at 0.1 mg/kg ([4]; Mus musculus, iv, 168 h, Example 63: 0.1 mpk i.v., G282 1:1, read-out: Serum TTR % TSS) [%]"
6.6,81,98,90,–,"CCCCCCCCCOC(=O)CCCCCCCN(CCO)CCCCCCCC(=O)OC(CCCCCCCC)CCCCCCCC [Compound 18, heptadecan-9-yl 8-((2-hydroxyethyl)(8-(nonyloxy)-8-oxooctyl)amino)octanoate, reference compound]",33,41.6,26.8,415,52,324,615,35,48,–,–,–,–,–,–
6.41,–,–,–,97,"CCCCCCCCOC(CCCCCCCN(CCO)CCCCCCCC(=O)OC(CC)CCCCCC)OCCCCCCCC (stereo not drawn) [Compound 28, nonan-3-yl 8-((8,8-bis(octyloxy)octyl)(2-hydroxyethyl)amino)octanoate]",–,–,–,–,–,–,–,–,–,20.74,42.36,493.60,321.26,61.2,39.8
